According to ChEMBL document CHEMBL5634091, “Cantharidin analogue alleviates dextran sulfate sodium-induced colitis in mice by inhibiting the activation of NF-κB signaling” (Eur J Med Chem, 2023):
Calls of active or inactive are those of the source. The rule behind the calls is not given here.

How the values were obtained:
[1] = Selectivity index, ratio of CC50 for cytotoxicity against TNF-alpha induced HEK293T cells to IC50 for inhibition of TNF-alpha induced NF-kappaB activation in HEK293T cells; type: toxicity, cell-based; conditions: human, HEK293T cells induced with TNF-alpha; read-out: Ratio IC50
[2] = Inhibition of TNF-alpha induced NF-kappaB activation in HEK293T cells preincubated for 4 hrs and followed by TNF-alpha stimulation and measured after 4 hrs by dual-luciferase reporter assay; type: cell-based; conditions: Homo sapiens, HEK-293T
[3] = Selectivity index, ratio of CC50 for cytotoxicity against LPS/IFNgamma induced mouse RAW264.7 cells to IC50 for antiinflammatory activity in mouse RAW264.7 cells assessed as inhibition in LPS/IFNgamma-induced NO production; type: toxicity, cell-based; conditions: RAW264.7 cells induced with LPS/IFNgamma, read-out: Ratio IC50
RAW264.7 [4] = test: Antiinflammatory activity in mouse RAW264.7 cells assessed as inhibition in LPS/IFNgamma-induced NO production preincubated for 2 hrs followed by LPS/IFNgamma stimulation and measured after 24 hrs by Griess reagent based assay; type: functional, cell-based
[5] = Cytotoxicity against TNF-alpha induced HEK293T cells assessed as inhibition of cell growth preincubated for 24 hrs followed by TNFalpha stimulation and measured after 4 hrs by SRB assay; type: toxicity, cell-based, HEK-293T; conditions: human, HEK293T cells induced with TNF-alpha; time 28 hrs
[6] = Cytotoxicity against LPS/IFNgamma induced mouse RAW264.7 cells assessed as inhibition of cell growth preincubated for 24 hrs followed by LPS/IFNgamma stimulation and measured after 24 hrs by SRB assay; type: toxicity, cell-based; conditions: RAW264.7 cells induced with LPS/IFNgamma, time 48 hrs
RAW264.7 [7] = test: Antiinflammatory activity in mouse RAW264.7 cells assessed as inhibition in LPS/IFNgamma-induced NO production at 200 uM preincubated for 2 hrs followed by LPS/IFNgamma stimulation and measured after 24 hrs by Griess reagent based assay relative to control; type: functional; conditions: time 26 hrs
[8] = Toxicity in Kunming mouse assessed as number of mouse survived at 66 mg/kg, po measured for 15 days; type: organism-based; conditions: in vivo, 360 h, time 15 day
[9] = Toxicity in Kunming mouse assessed as number of mouse survived at 82 mg/kg, po measured for 15 days; type: organism-based; conditions: in vivo, 360 h, time 15 day
[10] = Toxicity in po dosed Kunming mouse assessed as maximum tolerated dose; type: organism-based; conditions: in vivo
Mus musculus [11] = species: Mus musculus; test: Anti-inflammatory activity in C57BL/6 mouse model of DSS-induced acute ulcerative colitis; type: functional, organism-based
[12] = Toxicity in Kunming mouse assessed as number of mouse survived at 53 mg/kg, po measured for 15 days; type: organism-based; conditions: in vivo, 360 h, time 15 day
[13] = Toxicity in Kunming mouse assessed as increase in body weight at 42 mg/kg, po measured for 15 days (reference value: 12.38%); type: organism-based; conditions: in vivo, 360 h, time 15 day
[14] = Toxicity in Kunming mouse assessed as number of mouse survived at 42 mg/kg, po measured for 15 days; type: organism-based; conditions: in vivo, 360 h, time 15 day
[15] = Toxicity in Kunming mouse assessed as number of mouse survived at 40 mg/kg, po measured for 15 days; type: organism-based; conditions: in vivo, 360 h, time 15 day
[16] = Toxicity in Kunming mouse assessed as number of mouse survived at 57 mg/kg, po measured for 15 days; type: organism-based; conditions: in vivo, 360 h, time 15 day
[17] = Toxicity in Kunming mouse assessed as effect on kidney by measuring systemic edema at 117 mg/kg, po measured for 15 days; type: organism-based; conditions: in vivo, 360 h, time 15 day
[18] = Toxicity in Kunming mouse assessed as number of mouse survived at 117 mg/kg, po measured for 15 days; type: organism-based; conditions: in vivo, 360 h, time 15 day
[19] = Toxicity in Kunming mouse assessed as increase in body weight at 40 mg/kg, po measured for 15 days (reference value: 12.38%); type: organism-based; conditions: in vivo, 360 h, time 15 day
Mus musculus [20] = test: Anti-inflammatory activity in C57BL/6 mouse model of DSS-induced acute ulcerative colitis assessed as reduction in ulcerations at 100 to 300 mg/kg, po administered once a day for 7 days by H and E staining based analysis; type: functional, organism-based; conditions: dose 100-300 mg/kg, time 7.0 day
Mus musculus [21] = test: Anti-inflammatory activity in C57BL/6 mouse model of DSS-induced acute ulcerative colitis assessed as reduction in p65 expression in colon at 50 mg/kg, po administered once a day for 7 days by immunohistochemical analysis; type: functional, organism-based; conditions: time 7.0 day

SMILES	selectivity ratio [1]	IC50 [2] [µM]	selectivity ratio [3]	IC50 (RAW264.7 [4]) [µM]	CC50 at 4 h [5] [µM]	CC50 at 24 h [6] [µM]	further results
COC(=O)C1=C(C(=O)OC)C2OC1CC2C#Cc1ccc(Cl)cc1 (centres undefined)	1.74	12	1.48	3.53	20.9	5.23	–
COC(=O)C1=C(C(=O)OC)C2OC1CC2C#Cc1cc(OC)cc(OC)c1 (centres undefined)	5.45	6.3	1.37	3.7	34.4	5.06	–
COc1ccc(C#CC2CC3OC2c2cc(Br)c(Br)cc23)cc1 (centres undefined)	4.26	39.4	1.07	186	140	198	–
CC(C)(C)OC(=O)C1=C(C(=O)OC(C)(C)C)C2C=CC1O2	1.91	42	3.46	3.7	80.3	12.8	–
Brc1cc2c(cc1Br)C1C=CC2O1	2.7	71.8	–	> 200	194	> 200	inhibition at 200 µM (RAW264.7 [7]): ~30%
COC(=O)C1=C(C(=O)OC)C2OC1CC2C#Cc1ccccc1 (centres undefined)	3.21	19.3	1.53	3.72	62.1	5.69	–
COc1ccc(C#CC2CC3OC2c2cc(OC)c(OC)cc23)cc1 (centres undefined)	1.48	133	0.99	185	198	184	–
C[C@@H]1C[C@H]2[C@@H]3CCC4=CC(=O)C=C[C@]4(C)[C@@]3(F)[C@@H](O)C[C@]2(C)[C@@]1(O)C(=O)CO [DEXAMETHASONE]	> 16.4	12.2	–	–	> 200	–	–
C[C@@]12C(=O)OC(=O)[C@]1(C)[C@H]1CC[C@@H]2O1 [CANTHARIDIN]	–	–	0.38	10.2	–	3.88	–
COc1ccc(C#CC2CC3OC2c2ccccc23)cc1 (centres undefined)	1.15	157	1.19	161	181	191	–
O=C1OC(=O)C2C3CCC(O3)C12 (centres undefined) [DEMETHYL-CANTHARIDIN]	> 1.91	105	0.79	99.1	> 200	78.1	Activity [8]: 1; Activity [9]: 3; MTD [10]: 53 mg/kg; Activity (Mus musculus [11]): inactive; Activity [12]: 0; Activity [13]: 15.62%; Activity [14]: 0
COC(=O)C1=C(C(=O)OC)C2OC1CC2C#Cc1ccc(OC)cc1 (centres undefined)	0.9	24.9	4.15	1.81	22.4	7.51	–
C1=CC2OC1c1ccccc12	5.65	19.7	–	> 200	111	> 200	inhibition at 200 µM (RAW264.7 [7]): ~30%
COc1ccc(OC)c2c1C1C=CC2O1	4.79	24.6	–	> 200	118	> 200	inhibition at 200 µM (RAW264.7 [7]): ~30%
CCOC(=O)C1=C(C(=O)OCC)C2OC1CC2C#Cc1ccc(OC)cc1 (centres undefined)	4.34	12.1	3.73	5.07	52.8	18.9	–
COc1ccc(C#CC2CC3OC2c2c(OC)ccc(OC)c23)cc1 (centres undefined)	1.45	137	1.05	190	199	200	–
CCOC(=O)C1=C(C(=O)OCC)C2C=CC1O2	1.77	33.7	5.28	3.86	59.9	20.4	Activity [15]: 0; Activity [16]: 0; Activity [9]: 1; Activity [17]: Toxic; Activity [18]: 3; MTD [10]: 57 mg/kg; Activity (Mus musculus [11]): inactive; Activity [19]: 2.31%
COC(=O)C1=C(C(=O)OC)C2C=CC1O2	1.04	96.1	3.1	4.12	99.9	12.8	Activity [15]: 0; Activity [16]: 1; Activity [9]: 1; Activity [17]: Toxic; Activity [18]: 3; MTD [10]: 40 mg/kg; Activity (Mus musculus [11]): inactive; Activity [19]: 10.6%
COC(=O)C1=C(C(=O)OC)C2OC1CC2C#Cc1ccc(Br)cc1 (centres undefined)	4.9	4.42	1.46	3.47	21.7	5.06	–
COC(=O)C1=C(C(=O)OC)C2OC1CC2C#Cc1ccccc1OC (centres undefined)	3.09	9.92	1.45	3.77	30.7	5.46	Activity (Mus musculus [20]): Active
Nc1ccc(O)c(C(=O)O)c1	–	–	–	–	–	–	Activity (Mus musculus [21]): inactive
COC(=O)C1=C(C(=O)OC)C2OC1CC2C#Cc1ccc(F)cc1 (centres undefined)	4.75	5.58	1.67	3.75	26.5	6.25	–
CSC(=N)N	–	–	> 15.8	12.6	–	> 200	–
COc1cc2c(cc1OC)C1C=CC2O1	5.72	19.9	–	> 200	114	> 200	inhibition at 200 µM (RAW264.7 [7]): ~30%
